One data set has as its system tumor cell lines. The format is cell-based.
Another data set has as its system Colon 38 tumor cells. Nature of the data set: In vivo treatment of Colon 38 tumor cells implanted sc in BDF1 mice. As to conditions: 25 mg/kg/dose twice daily for five days. From the text:
Colon 38 tumor cells were implanted sc to BDF1 mice.

For a further data set, the system named is Leukemia P388 cells. Nature of the data set: In vivo treatment of leukemia P388 cells implanted ip in BDF1 mice. As to conditions: 25 × 2 × 5 mg/kg ip, twice a day on days 1 to 5.
For a further data set, the target named is cytidine deaminase (Homo sapiens, UniProt P32320). Nature of the data set: Enzymatic studies of deamination. The format is biochemical.
Another data set has as its system HepG2 cells. In words: Activity against HepG2 cells in nude mice. The format is in vivo.
A short description of data set [1]: Phosphorylation to nucleotides in vivo.
In data set [2] the target is human deoxycytidine kinase (Homo sapiens, UniProt P27707). In words: In vitro enzymatic studies of phosphorylation. The format is biochemical.

“Also recorded” adds a separate entry of the source.

Sequence of cytidine deaminase (P32320 whole entry, species assumed): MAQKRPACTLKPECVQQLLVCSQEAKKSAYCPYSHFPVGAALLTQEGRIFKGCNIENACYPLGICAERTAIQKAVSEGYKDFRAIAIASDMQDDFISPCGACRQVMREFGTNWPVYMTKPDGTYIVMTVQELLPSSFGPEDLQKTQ
Sequence of human deoxycytidine kinase (P27707 whole entry): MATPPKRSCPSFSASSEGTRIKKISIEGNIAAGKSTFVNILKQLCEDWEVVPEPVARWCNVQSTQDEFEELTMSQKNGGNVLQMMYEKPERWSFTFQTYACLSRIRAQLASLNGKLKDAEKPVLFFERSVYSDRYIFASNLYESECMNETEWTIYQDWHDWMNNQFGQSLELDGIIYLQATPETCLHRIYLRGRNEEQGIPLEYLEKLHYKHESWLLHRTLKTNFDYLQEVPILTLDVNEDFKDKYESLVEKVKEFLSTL
From the text for Leukemia P388 cells: 10^6 Leukemia P388 cells were implanted ip to BDF1 mice obtained from Southern Research Institute, Alabama.

For the molecule `O=c1ccn(C2COC(CO)O2)c(=O)[nH]1` (single isomer, unassigned; (-)) [(−)-OddU, reference compound], in the data set with tumor cell lines, the “cytotoxicity in all of the tumor cell lines tested” value is listed as “not toxic”.

As for `Nc1ccn([C@@H]2CO[C@H](CO)O2)c(=O)n1` [(−)-OddC, (−)-(2S,4S)-1-(2-hydroxymethyl-1,3-dioxolan-4-yl)cytosine], the “colon tumor cell growth (FIG. 2)” value with Colon 38 tumor cells was “retarded”. Also, the “Cures/Total (survivors equal or greater than 45 day life span)” value in the data set on Leukemia P388 cells (5 mg/kg) is reported as 1/6. Moreover, in the data set with Leukemia P388 cells (10^6 P388 cells ip on day 0), the “ILS (Increased Life Span percent above control)” value worked out at 103%. Also, the “deamination / substrate for deaminase” value at cytidine deaminase is “not a substrate for deaminase; also recorded: not deaminated”. Moreover, the “activity against HepG2 cells in nude mice” value in the data set with HepG2 cells is listed as “active”. In data set [1], the “phosphorylation to mono-, di- and tri-phosphate nucleotide” value is listed as “can be phosphorylated”. Besides, in data set [2], the “phosphorylation by human deoxycytidine kinase” value was “can be phosphorylated by this enzyme”. Further, the “effectiveness compared with AraC” value with tumor cell lines (KB, DU-145 and PC-3 cell lines) is “significantly more effective than AraC”. The “cytotoxicity in all of the tumor cell lines tested” value in the data set with tumor cell lines is recorded as “more cytotoxic than AraC”.

On to `Nc1ccn([C@@H]2O[C@H](CO)[C@@H](O)[C@@H]2O)c(=O)n1` [AraC, Cytosine arabinoside, reference compound], for which the “activity against HepG2 cells in nude mice” value in the data set on HepG2 cells is “inactive”.
